Reference: patent publication US4357324A, “Prodrug derivatives of 9β-D-arabinofuranosyl-2-fluoroadenine” (The United States of America as represented by the …, priority 1981, dated 1982)

Experiments:
[1] = in words; second component of the two-drug combination; cited from earlier work
L1210 Leukemia = experiment: Activity against L1210 leukemia, 10^5 L1210 cell IP (Table IV); format: in vivo, mice; conditions: for Lifespan: untreated control 8; for lifespan and cures of mice implanted with leukemia L1210 cells: FIGS. 1 and 3
Protocol: (§1) These higher levels of the active agent that last for longer periods of time allow effective treatment with these drugs given once a day for nine days (see FIGS. 1, 2 and 3).
(§2) It has been noted that the antitumor activity of 9-β-D-arabinofuranosyl adenine (ara-A) is enhanced by the incorporation of a fluorine atom at the 2-carbon. […] To overcome this difficulty two water-soluble derivatives, the 5'-formate and the 5'-phosphate, were prepared.

L1210 cells = experiment: Nanomoles of triphosphate per gm L1210 cells after treatment (Table I); format: in vivo, mice; conditions: for levels of F-ara-A triphosphate in leukemic cells versus F-ara-A itself: mouse, in vivo
Protocol: as §1, §2

L1210/0 Leukemia = experiment: Activity against L1210/0 leukemia, 10^5 IP (Tables II and III); format: in vivo, mice
Protocol: as §1
Treatment: IP; QD 1-9 Days*
*2'dCF Given 30 Minutes Before araA
as §2

[2] = Water solubility (statement); format: physicochemical; conditions: in words
[3] = Conversion to the parent drug in vivo (statement); conditions: in words
[4] = Table IV, 375 mg/kg/day, q3h, days 1,5,9
[5] = Table II, 150 mg/kg/dose, IP, QD 1-9 days
[6] = mice implanted with leukemia L1210 cells
[7] = Table IV, 219 mg/kg/day, qd 1-9

SMILES: OC[C@H]1O[C@@H](n2cnc3c2NC=NC[C@H]3O)C[C@@H]1O [2'-dCF]
- toxicity [1]: clear but not completely defined toxicity

SMILES: Nc1ncnc2c1ncn2[C@@H]1O[C@H](COP(=O)(O)O)[C@@H](O)[C@@H]1O [Ara-AMP, 9-β-D-arabinofuranosyl adenine 5'-phosphate, reference compound]
- % ILS (L1210 Leukemia; [4]): 62%
- Lifespan (L1210 Leukemia; [4]): 13 days

SMILES: Nc1nc(F)nc2c1ncn2[C@@H]1O[C@H](COC=O)[C@@H](O)[C@@H]1O [F-ara-A5'-formate, 9-(5-O-formyl-β-D-arabinofuranosyl)-2-fluoroadenine]
- levels of F-ara-A triphosphate in leukemic cells versus F-ara-A itself (L1210 cells): higher levels
- % ILS (L1210/0 Leukemia; [5]): 177%
- Cures (L1210/0 Leukemia; [5]): 3/10
- Median Lifespan (L1210/0 Leukemia; Table II, 150 mg/kg/dose, IP, QD 1-9 days, untreated control 9): 25 days
- Cures (L1210/0 Leukemia; [6]): three
- increase in lifespan (L1210/0 Leukemia; [6]): 177%
- lifespan and cures of mice implanted with leukemia L1210 cells (L1210 Leukemia): good increases in lifespan and some cures
- solubility [2]: water-soluble
- conversion to the parent drug in vivo [3]: converted to the parent drug in vivo

SMILES: Nc1nc(F)nc2c1ncn2[C@@H]1O[C@H](CO)[C@@H](O)[C@@H]1O [F-ara-A, 9-β-D-arabinofuranosyl-2-fluoroadenine, reference compound]
- levels of the triphosphate in L1210 versus ara-A+2'dCF (L1210 cells; near equimolar doses): higher levels
- solubility [2]: very insoluble

SMILES: Nc1nc(F)nc2c1ncn2[C@@H]1O[C@H](COP(=O)(O)O)[C@@H](O)[C@@H]1O [F-ara-AMP, 9-β-D-arabinofuranosyl-2-fluoroadenine 5'-phosphate]
- levels of F-ara-A triphosphate in leukemic cells versus F-ara-A itself (L1210 cells): higher levels
- lifespan and cures of mice implanted with leukemia L1210 cells (L1210 Leukemia): good increases in lifespan and some cures
- % ILS (L1210 Leukemia; [7]): 125%
- Cures (L1210 Leukemia; [7]): 3/10
- Lifespan (L1210 Leukemia; [7]): 18 days
- solubility [2]: water-soluble
- conversion to the parent drug in vivo [3]: converted to the parent drug in vivo

SMILES: Nc1ncnc2c1ncn2[C@@H]1O[C@H](CO)[C@@H](O)[C@@H]1O [ara-A, 9-β-D-arabinofuranosyl adenine, reference compound]
- effectiveness (L1210 Leukemia; optimal schedule, every 3 hours for 24 hours): not very effective
